Experimental data as given in patent US9365541B2, “Compounds for use in the treatment of parasitic diseases” (IRBM—SCIENCE PARK S.P.A., priority 2012, dated 2016).

What was measured:
[1] = target: T1, human HDAC1 (Homo sapiens, UniProt Q13547); test: Homo sapiens HDAC1 inhibition assay (Fluor-de-Lys, enzymatic); format: biochemical; settings: human HDAC enzymatic assay; read-out: hHDAC IC50
T1 construct: made in house; host or cells: HeLa (ATCC CCL-2), mammalian cells
In short: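 Fluorogenic deacetylation read-out: trypsin developer, supplemented with 2 μM final TSA as stop, releases fluorophore from deacetylated substrate.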

[2] = tested on: Plasmodium falciparum 3D7; test: P. falciparum growth inhibition assay (Pf-LDH); format: cell-based; settings: Plasmodium falciparum, Erythrocyte; P. falciparum 3D7 infected erythrocytes, 72 h incubation, PfLDH readout
In short: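 Compounds were tested against 72 h cultures of the 3D7 strain (0.25% parasitemia, 2% hematocrit, 37° C, low-oxygen gas). Parasite growth was quantified as lactate dehydrogenase activity via NBT reduction, absorbance 650 nm, after freezing and thawing.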

T1 sequence (Q13547 whole entry): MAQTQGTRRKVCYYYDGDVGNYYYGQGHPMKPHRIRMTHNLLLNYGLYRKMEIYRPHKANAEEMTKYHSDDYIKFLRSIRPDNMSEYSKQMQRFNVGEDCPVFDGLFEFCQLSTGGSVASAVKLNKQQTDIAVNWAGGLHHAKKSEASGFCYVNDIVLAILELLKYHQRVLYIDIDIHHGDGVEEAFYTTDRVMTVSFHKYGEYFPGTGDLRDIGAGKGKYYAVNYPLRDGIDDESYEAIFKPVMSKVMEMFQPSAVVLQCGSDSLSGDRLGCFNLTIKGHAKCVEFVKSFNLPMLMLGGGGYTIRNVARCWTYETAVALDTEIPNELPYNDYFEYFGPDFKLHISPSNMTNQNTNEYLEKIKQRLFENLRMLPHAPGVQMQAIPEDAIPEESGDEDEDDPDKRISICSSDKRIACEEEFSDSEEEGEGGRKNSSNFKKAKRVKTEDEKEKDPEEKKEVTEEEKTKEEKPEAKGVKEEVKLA

Structure (SMILES)	IC50 [1]	EC50 [2]
CNC(=O)CCCCC[C@H](NC(=O)c1cncs1)c1ncc(-c2ccc(-c3ccccc3)nc2OC)[nH]1 [Entry 192, (S)-N-(1-(5-(2-methoxy-6-phenylpyridin-3-yl)-1H-imidazol-2-yl)-7-(methylamino)-7-oxoheptyl)thiazole-5-carboxamide]	> 5 µM	1 to 5 µM
CNC(=O)CCCCC[C@H](NC(=O)c1cncs1)c1ncc(-c2cc3ccccc3[nH]c2=O)[nH]1 [Entry 193, (S)-N-(7-(methylamino)-7-oxo-1-(5-(2-oxo-1,2-dihydroquinolin-3-yl)-1H-imidazol-2-yl)heptyl)thiazole-5-carboxamide]	< 1 µM	< 1 µM
CNC(=O)CCCCC[C@H](NC(=O)c1cncs1)c1ncc(-c2ccc3cc(OC)ccc3c2)[nH]1 [Entry 194, (S)-N-(1-(5-(6-methoxynaphthalen-2-yl)-1H-imidazol-2-yl)-7-(methylamino)-7-oxoheptyl)thiazole-5-carboxamide]	< 1 µM	< 1 µM
CNC(=O)CCCCC[C@H](NC(=O)c1ccc(N2CC(=O)NC2=O)cc1)c1ncc(-c2ccc(-n3cccn3)cc2)[nH]1 [Entry 195, (S)-N-(1-(5-(4-(1H-pyrazol-1-yl)phenyl)-1H-imidazol-2-yl)-7-(methylamino)-7-oxoheptyl)-4-(2,4-dioxoimidazolidin-1-yl)benzamide]	> 5 µM	1 to 5 µM
CNC(=O)CCCCC[C@H](NC(=O)c1cncs1)c1ncc(-c2ccc(-c3cccnc3)cc2)[nH]1 [Entry 196, (S)-N-(7-(methylamino)-7-oxo-1-(5-(4-(pyridin-3-yl)phenyl)-1H-imidazol-2-yl)heptyl)thiazole-5-carboxamide]	1 to 5 µM	1 to 5 µM
CNC(=O)CCCCC[C@H](NC(=O)c1csc(-c2cccnc2)n1)c1ncc(-c2ccc3ccccc3c2)[nH]1 [Entry 197, (S)-N-(7-(methylamino)-1-(5-(naphthalen-2-yl)-1H-imidazol-2-yl)-7-oxoheptyl)-2-(pyridin-3-yl)thiazole-4-carboxamide]	> 5 µM	1 to 5 µM
CNC(=O)CCCCC[C@H](NC(=O)C1CC(=O)Nc2ccccc21)c1ncc(-c2ccc3ccccc3c2)[nH]1 (stereo partly drawn) [Entry 198, N-((S)-7-(methylamino)-1-(5-(naphthalen-2-yl)-1H-imidazol-2-yl)-7-oxoheptyl)-2-oxo-1,2,3,4-tetrahydroquinoline-4-carboxamide]	1 to 5 µM	< 1 µM
CNC(=O)CCCCC[C@H](NC(=O)CCc1cnn(C)c1)c1ncc(-c2ccc3ccccc3c2)[nH]1 [Entry 199, (S)-N-methyl-7-(3-(1-methyl-1H-pyrazol-4-yl)propanamido)-7-(5-(naphthalen-2-yl)-1H-imidazol-2-yl)heptanamide]	< 1 µM	1 to 5 µM
CNC(=O)CCCCC[C@H](NC(=O)Cc1c(C)[nH]c2ccc(OC)cc12)c1nnc(-c2ccc3ccccc3c2)o1 [Entry 200, (S)-7-(2-(5-methoxy-2-methyl-1H-indol-3-yl)acetamido)-N-methyl-7-(5-(naphthalen-2-yl)-1,3,4-oxadiazol-2-yl)heptanamide]	< 1 µM	1 to 5 µM
CNC(=O)CCCCC[C@H](NC(=O)CC1=CSC2=NCCCN12)c1ncc(-c2cc3ccccc3nc2OC)[nH]1 [Entry 201, (S)-7-(2-(6,7-dihydro-5H-thiazolo[3,2-a]pyrimidin-3-yl)acetamido)-7-(5-(2-methoxyquinolin-3-yl)-1H-imidazol-2-yl)-N-methylheptanamide]	1 to 5 µM	< 1 µM
CNC(=O)CCCCC[C@H](NC(=O)CC1=CSC2=NCCCN12)c1ncc(-c2ccc3ccccc3c2)[nH]1 [Entry 202, (S)-7-(2-(6,7-dihydro-5H-thiazolo[3,2-a]pyrimidin-3-yl)acetamido)-N-methyl-7-(5-(naphthalen-2-yl)-1H-imidazol-2-yl)heptanamide]	1 to 5 µM	< 1 µM
CNC(=O)CCCCC[C@H](NC(=O)c1nnc(C)o1)c1ncc(-c2ccc3ccccc3c2)[nH]1 [Entry 203, (S)-5-methyl-N-(7-(methylamino)-1-(5-(naphthalen-2-yl)-1H-imidazol-2-yl)-7-oxoheptyl)-1,3,4-oxadiazole-2-carboxamide]	> 5 µM	1 to 5 µM
CNC(=O)CCCCC[C@H](NC(=O)C12CCN(CC1)CC2)c1ncc(-c2cc3ccccc3[nH]c2=O)[nH]1 [Entry 204, (S)-N-(7-(methylamino)-7-oxo-1-(5-(2-oxo-1,2-dihydroquinolin-3-yl)-1H-imidazol-2-yl)heptyl)quinuclidine-4-carboxamide]	1 to 5 µM	> 5 µM
CNC(=O)CCCCC[C@H](NC(=O)c1cncs1)c1ncc(-c2ccc(-c3ccccc3)s2)[nH]1 [Entry 205, (S)-N-(7-(methylamino)-7-oxo-1-(5-(5-phenylthiophen-2-yl)-1H-imidazol-2-yl)heptyl)thiazole-5-carboxamide]	1 to 5 µM	1 to 5 µM
CNC(=O)CCCCC[C@H](NC(=O)[C@@H]1CCCN2CCCC[C@H]12)c1ncc(-c2ccc3ccncc3c2)[nH]1 [Entry 206, (1R,9aR)-N-((S)-1-(5-(isoquinolin-7-yl)-1H-imidazol-2-yl)-7-(methylamino)-7-oxoheptyl)octa-hydro-1H-quinolizine-1-carboxamide]	1 to 5 µM	1 to 5 µM
CNC(=O)CCCCC[C@H](NC(=O)Cc1ncccn1)c1ncc(-c2ccc3ccncc3c2)[nH]1 [Entry 207]	> 5 µM	1 to 5 µM
CNC(=O)CCCCC[C@H](NC(=O)Cn1cc2ccccc2n1)c1ncc(-c2ccc3ccncc3c2)[nH]1 [Entry 208, (S)-7-(2-(2H-indazol-2-yl)acetamido)-7-(5-(isoquinolin-7-yl)-1H-imidazol-2-yl)-N-methyl-heptanamide]	< 1 µM	< 1 µM
CNC(=O)CCCCC[C@H](NC(=O)c1cscn1)c1ncc(-c2ccc(-c3ccn(C)n3)cc2)[nH]1 [Entry 209, (S)-N-(1-(5-(4-(1-methyl-1H-pyrazol-3-yl)phenyl)-1H-imidazol-2-yl)-7-(methylamino)-7-oxoheptyl)thiazole-4-carboxamide]	> 5 µM	> 5 µM
CNC(=O)CCCCC[C@H](NC(=O)c1cnsc1)c1ncc(-c2ccc(-c3ccn(C)n3)cc2)[nH]1 [Entry 210]	1 to 5 µM	< 1 µM
CNC(=O)CCCCC[C@H](NC(=O)Cc1ncccn1)c1ncc(-c2ccc(-c3ccn(C)n3)cc2)[nH]1 [Entry 211]	> 5 µM	> 5 µM
CNC(=O)CCCCC[C@H](NC(=O)c1cnn(C)c1)c1ncc(-c2ccc(-c3ccn(C)n3)cc2)[nH]1 [Entry 212, (S)-1-methyl-N-(1-(5-(4-(1-methyl-1H-pyrazol-3-yl)phenyl)-1H-imidazol-2-yl)-7-(methylamino)-7-oxoheptyl)-1H-pyrazole-4-carboxamide]	1 to 5 µM	< 1 µM
CNC(=O)CCCCC[C@H](NC(=O)c1ccnn1C)c1ncc(-c2ccc(-c3ccn(C)n3)cc2)[nH]1 [Entry 213, (S)-1-methyl-N-(1-(5-(4-(1-methyl-1H-pyrazol-3-yl)phenyl)-1H-imidazol-2-yl)-7-(methylamino)-7-oxoheptyl)-1H-pyrazole-5-carboxamide]	> 5 µM	1 to 5 µM
